Marks after values point to notes of the source that are not given here.
Experiments:
Format in all cases: in vivo
[1] = system: Puccinia recondite f. sp. tritici (the causal agent of wheat leaf rust); experiment: Test A: wheat leaf rust, preventive spray on wheat seedlings, visual disease rating; conditions: for Test A rating (100 = 100% disease control, 0 = no disease control relative to the controls): wheat leaf rust, preventive spray on wheat seedlings; for Test A rating (% disease control, wheat leaf rust): 100 = 100% disease control
How it was run: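 Wheat seedlings were sprayed to run-off with compound suspended in acetone/water containing 250 ppm Trem 014 (200 ppm ≈ 800 g/ha; some at 40 ppm). Puccinia recondite spores were inoculated the next day. Plants were held 24 h saturated at 20° C, then 7 days at 20° C, and disease control was rated visually on a 0–100 scale against controls.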

[2] = system: Septoria tritici (the causal agent of wheat leaf blotch); experiment: Test B: wheat leaf blotch, preventive spray on wheat seedlings, visual disease rating; conditions: for Test B rating (100 = 100% disease control, 0 = no disease control relative to the controls): wheat leaf blotch, preventive spray on wheat seedlings; for Test B rating (% disease control, wheat leaf blotch): 100 = 100% disease control
How it was run: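 Wheat seedlings sprayed to run-off with compound suspension (acetone/water with 250 ppm Trem 014; 200 ppm ≈ 800 g/ha, some at 40 ppm), inoculated next day with Septoria tritici spores. 48 h saturated humidity at 24 °C, then 19 days at 20 °C; visual rating, 100 = full control.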

[3] = system: Botrytis cinerea (the causal agent of tomato Botrytis); experiment: Test C: tomato Botrytis, preventive spray on tomato seedlings, visual disease rating; conditions: for Test C rating (100 = 100% disease control, 0 = no disease control relative to the controls): tomato Botrytis, preventive spray on tomato seedlings; for Test C rating (% disease control, tomato Botrytis): 100 = 100% disease control
How it was run: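 Test suspension (acetone/water with 250 ppm Trem 014; 200 ppm equivalent to 800 g/ha) sprayed to run-off on tomato seedlings; B. cinerea spores inoculated next day. After 48 h saturated humidity at 20° C then 3 days at 24° C, disease rated visually as % control relative to untreated controls (0–100).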

[4] = system: Blumeria graminis f. sp. tritici (also known as Erysiphe graminis f. sp. tritici, the causal agent of wheat powdery mildew); experiment: Test D: wheat powdery mildew, preventive spray on wheat seedlings, visual disease rating; conditions: for Test D rating (100 = 100% disease control, 0 = no disease control relative to the controls): wheat powdery mildew, preventive spray on wheat seedlings; for Test D rating (% disease control, wheat powdery mildew): 100 = 100% disease control
How it was run: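 Compound suspended in acetone/water (50/50) with 250 ppm Trem 014 and sprayed to run-off on wheat seedlings (200 ppm ≈ 800 g/ha), then inoculated next day with spore dust. Disease rated visually after 8 days at 20 °C as % control relative to untreated plants (0-100).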

[5] = no asterisk (standard test suspension concentration, not 40 ppm)
[6] = asterisk: 40 ppm test suspension, 0 = no control
[7] = asterisk: 40 ppm test suspension
[8] = no asterisk: standard test suspension concentration, 0 = no control relative to controls

| Structure (SMILES) | Test A rating (100 = 100% disease control, 0 = no disease control relative to the controls) [1, 5] [%] | Test B rating (100 = 100% disease control, 0 = no disease control relative to the controls) [2, 5] [%] | Test C rating (100 = 100% disease control, 0 = no disease control relative to the controls) [3, 5] [%] | Test D rating (100 = 100% disease control, 0 = no disease control relative to the controls) [4, 5] [%] | Test A rating (100 = 100% disease control, 0 = no disease control relative to the controls) [1, 7] | Test B rating (100 = 100% disease control, 0 = no disease control relative to the controls) [2, 7] | Test C rating (100 = 100% disease control, 0 = no disease control relative to the controls) [3, 7] | Test D rating (100 = 100% disease control, 0 = no disease control relative to the controls) [4, 7] | further results |
| --- | --- | --- | --- | --- | --- | --- | --- | --- | --- |
| Cc1nc(Cl)n(-c2ccc(F)cc2F)c1C(O)c1ccc(F)cc1F (stereo not drawn) [compound 162] | 100 | 100 | 100 | 98 |  |  |  |  |  |
| COc1cc(F)c(-n2c(C)nc(Cl)c2C(O)c2ccc(F)cc2F)c(F)c1 (stereo not drawn) [compound 411] |  |  |  |  |  |  |  |  | Test A rating (% disease control, wheat leaf rust) [1, 6]: 100* %; Test B rating (% disease control, wheat leaf blotch) [2, 6]: 100* %; Test C rating (% disease control, tomato Botrytis) [3, 6]: 85* %; Test D rating (% disease control, wheat powdery mildew) [4, 6]: 50* % |
| Cc1ncc(C(O)c2ccc(F)cc2Cl)n1-c1c(F)cc(F)cc1Cl (stereo not drawn) [compound 370] | 100 | 100 | 100 | 0 |  |  |  |  |  |
| Cc1nc(Br)c(C(O)c2ccc(F)cc2Cl)n1-c1c(F)cc(F)cc1F (stereo not drawn) [Compound 168, 4-bromo-α-(2-chloro-4-fluorophenyl)-2-methyl-1-(2,4,6-trifluorophenyl)-1H-imidazole-5-methanol] |  |  |  |  | 100* % | 100* % | 99* % | 56* % |  |
| COc1cc(F)c(C(O)c2cnc(C)n2-c2ccc(F)cc2Br)c(F)c1 (stereo not drawn) [compound 322] |  |  |  |  | 28* % | 2* % | 0* % | 0* % |  |
| Cc1nc(Br)c(C(O)c2ccc(F)cc2Br)n1-c1c(F)cccc1Cl (stereo not drawn) [compound 387] |  |  |  |  |  |  |  |  | Test A rating (% disease control, wheat leaf rust) [1, 6]: 100* %; Test B rating (% disease control, wheat leaf blotch) [2, 6]: 100* %; Test C rating (% disease control, tomato Botrytis) [3, 6]: 99* %; Test D rating (% disease control, wheat powdery mildew) [4, 8]: 90% |
| Cc1cccc(C)c1-n1c(C)nc(Cl)c1C(O)c1ccc(F)cc1Cl (racemic) [compound 226] | 94 | 98 | 6 | 0 |  |  |  |  |  |
| OC(c1ccc(F)cc1F)c1c(Cl)nc(Cl)n1-c1ccc(Cl)cc1Cl (single isomer, unassigned) [compound 22] | 100 | 100 | 98 | 0 |  |  |  |  |  |
| Cc1nc(Cl)n(-c2c(F)cc(F)cc2F)c1C(O)c1ccc(F)cc1F (stereo not drawn) [compound 83] |  |  |  |  | 100* % | 100* % | 99* % | 100* % |  |
| Cc1nc(Br)c(C(O)c2ccc(F)cc2Cl)n1-c1c(F)cccc1Br (stereo not drawn) [compound 134] | 100 | 100 | 100 | 98 |  |  |  |  |  |
| OC(c1ccc(F)cc1Cl)c1c(Cl)nc(Cl)n1-c1c(F)cc(F)cc1Cl (stereo not drawn) [compound 42] | 100 | 100 | 100 | 100 |  |  |  |  |  |
| COc1cc(F)c(C(O)c2c(Br)nc(C)n2-c2ccc(F)cc2Br)c(F)c1 (stereo not drawn) [compound 323] |  |  |  |  | 100* % | 100* % | 100* % | 99* % |  |
| COc1cc(F)ccc1C(O)c1c(Br)nc(C)n1-c1c(F)cccc1F (racemic) [compound 281] |  |  |  |  | 92* % | 0* % | 0* % | 0* % |  |
| COc1ccc(C(O)c2c(Br)nc(C)n2-c2ccc(F)cc2Cl)c(F)c1 (stereo not drawn) [compound 302] |  |  |  |  | 100* % | 100* % | 100* % | 64* % |  |
| Cc1nc(Cl)c(C(O)c2ccc(Cl)cc2Cl)n1-c1c(F)cc(F)cc1Cl (stereo not drawn) [compound 66] |  |  |  |  | 100* % | 100* % | 99* % | 69* % |  |
| Cc1cc(F)ccc1C(O)c1c(Br)nc(C)n1-c1c(F)cccc1F (stereo not drawn) [compound 88] | 99 | 100 | 96 | 90 |  |  |  |  |  |
| OC(c1ccc(F)cc1F)c1c(Cl)ncn1-c1ccc(F)cc1Cl (stereo not drawn) [Compound 2, 4-chloro-1-(2-chloro-4-fluorophenyl)-α-(2,4-difluorophenyl)-1H-imidazole-5-methanol] | 100 | 100 | 100 | 81 |  |  |  |  |  |
| Cc1nc(Cl)c(C(O)c2ccc(F)cc2Br)n1-c1c(F)cc(F)cc1Br (stereo not drawn) [compound 70] |  |  |  |  | 100* % | 100* % | 99* % | 43* % |  |
| Cc1nc(Br)c(C(O)c2cccnc2F)n1-c1c(F)cc(F)cc1F (stereo not drawn) [compound 414] |  |  |  |  |  |  |  |  | Test A rating (% disease control, wheat leaf rust) [1, 8]: 100%; Test B rating (% disease control, wheat leaf blotch) [2, 8]: 100%; Test C rating (% disease control, tomato Botrytis) [3, 8]: 67%; Test D rating (% disease control, wheat powdery mildew) [4, 8]: 13% |
| Cc1nc(Br)c(C(O)c2ccc(F)cc2F)n1-c1c(F)cccc1F (stereo not drawn) [compound 178] |  |  |  |  | 100* % | 100* % | 96* % | 64* % |  |
| Cc1nc(Br)c(C(O)c2ccc(Cl)cc2Cl)n1-c1c(F)cc(Cl)cc1F (stereo not drawn) [compound 113] |  |  |  |  | 95* % | 100* % | 0* % | 0* % |  |
| COc1cc(F)c(C(O)c2c(Cl)nc(C)n2-c2ccc(F)cc2Cl)c(F)c1 (stereo not drawn) [compound 153] | 100 | 100 |  | 94 |  |  | 99* % |  |  |
| Cc1ncc(C(O)c2ccc(F)cc2F)n1-c1ccc(F)cc1Br (stereo not drawn) [compound 321] |  |  |  |  | 0* % | 0* % | 0* % | 0* % |  |
| OC(c1ccc(Cl)cc1)c1c(Cl)nc(Cl)n1-c1ccc(F)cc1Cl (single isomer, unassigned) [compound 47] | 100 | 100 | 99 | 0 |  |  |  |  |  |
